pIC50: −log10 of the molar value.
How the values were obtained:
Assay in all cases: KAM-matrix competition in K562 lysate;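 on 0.001 uM KAM: median log10 fold change of treatment over DMSO control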;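 on 0.01 uM KAM: median log10 fold change of treatment over DMSO control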;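 on 0.1 uM KAM: median log10 fold change of treatment over DMSO control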;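 on 1 uM KAM: median log10 fold change of treatment over DMSO control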;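 on 10 uM KAM: median log10 fold change of treatment over DMSO control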
Assay type in all cases: binding
STK26 = target: T1, STK26 (Homo sapiens, UniProt Q9P289)
T1 construct: endogenous in cells; host or cells: K562
Description: (§1) Supplement 12953_2017_125_MOESM1_ESM.zip/MS_Supp Info.xlsx, sheet "KAM" | column: 10 uM KAM; 1 uM KAM; 0.1 uM KAM; 0.01 uM KAM; 0.001 uM KAM; RB50

CLK2 = target: T2, CLK2 (Homo sapiens, UniProt P49760);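 on 0.001 uM KAM: median log10 fold change of treatment over DMSO control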;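 on 0.01 uM KAM: median log10 fold change of treatment over DMSO control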;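 on 0.1 uM KAM: median log10 fold change of treatment over DMSO control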;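 on 1 uM KAM: median log10 fold change of treatment over DMSO control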;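 on 10 uM KAM: median log10 fold change of treatment over DMSO control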
T2 construct: endogenous in cells; host or cells: K562
Description: as §1

ACVR1 = target: T3, ACVR1 (Homo sapiens, UniProt Q04771)
T3 construct: endogenous in cells; host or cells: K562
T3 sequence (Q04771 21-509): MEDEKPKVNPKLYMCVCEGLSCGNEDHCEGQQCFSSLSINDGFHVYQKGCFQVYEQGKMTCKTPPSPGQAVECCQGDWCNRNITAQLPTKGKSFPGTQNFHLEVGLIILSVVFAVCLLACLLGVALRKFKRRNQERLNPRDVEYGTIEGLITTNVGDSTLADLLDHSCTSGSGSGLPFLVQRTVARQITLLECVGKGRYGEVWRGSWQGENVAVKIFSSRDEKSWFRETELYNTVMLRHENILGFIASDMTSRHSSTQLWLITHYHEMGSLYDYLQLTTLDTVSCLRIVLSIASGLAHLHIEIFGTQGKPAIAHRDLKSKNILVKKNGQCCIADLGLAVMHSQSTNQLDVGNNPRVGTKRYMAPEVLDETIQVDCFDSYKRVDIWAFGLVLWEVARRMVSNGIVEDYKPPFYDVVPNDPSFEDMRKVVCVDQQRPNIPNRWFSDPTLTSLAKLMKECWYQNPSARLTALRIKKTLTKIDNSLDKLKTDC
Description: as §1

BMP2K = target: T4, BMP2K (Homo sapiens, UniProt Q9NSY1)
T4 construct: endogenous in cells; host or cells: K562
Description: as §1

PDIK1L = target: T5, PDIK1L (Homo sapiens, UniProt Q8N165)
T5 construct: endogenous in cells; host or cells: K562
Description: as §1

HIPK1 = target: T6, HIPK1 (Homo sapiens, UniProt Q86Z02)
T6 construct: endogenous in cells; host or cells: K562
Description: as §1

MAPK1 = target: T7, MAPK1 (Homo sapiens, UniProt P28482)
T7 construct: endogenous in cells; host or cells: K562
Description: as §1

TBK1 = target: T8, TBK1 (Homo sapiens, UniProt Q9UHD2)
T8 construct: endogenous in cells; host or cells: K562
T8 sequence (Q9UHD2 1-729): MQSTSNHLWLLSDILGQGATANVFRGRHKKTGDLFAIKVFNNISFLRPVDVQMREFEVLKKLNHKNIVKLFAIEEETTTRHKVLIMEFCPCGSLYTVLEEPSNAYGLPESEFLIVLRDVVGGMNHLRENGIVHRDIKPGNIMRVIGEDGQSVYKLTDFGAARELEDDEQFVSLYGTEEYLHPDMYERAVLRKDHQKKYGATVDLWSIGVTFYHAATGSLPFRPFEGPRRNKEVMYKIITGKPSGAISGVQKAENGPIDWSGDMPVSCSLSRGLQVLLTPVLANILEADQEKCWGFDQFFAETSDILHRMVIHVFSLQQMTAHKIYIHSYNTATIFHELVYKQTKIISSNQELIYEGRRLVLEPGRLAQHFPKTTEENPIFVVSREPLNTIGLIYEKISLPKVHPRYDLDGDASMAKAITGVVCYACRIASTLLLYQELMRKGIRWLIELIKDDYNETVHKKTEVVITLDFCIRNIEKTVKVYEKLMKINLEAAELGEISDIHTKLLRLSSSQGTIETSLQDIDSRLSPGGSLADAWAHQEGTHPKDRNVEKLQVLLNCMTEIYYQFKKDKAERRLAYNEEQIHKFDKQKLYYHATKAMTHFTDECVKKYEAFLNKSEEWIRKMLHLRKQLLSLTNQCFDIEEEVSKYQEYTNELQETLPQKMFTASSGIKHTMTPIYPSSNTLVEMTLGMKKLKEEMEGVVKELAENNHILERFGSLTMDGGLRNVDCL
Description: as §1

CAMK1 = target: T9, CAMK1 (Homo sapiens, UniProt Q14012);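 on 0.001 uM KAM: median log10 fold change of treatment over DMSO control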;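 on 0.01 uM KAM: median log10 fold change of treatment over DMSO control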;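 on 0.1 uM KAM: median log10 fold change of treatment over DMSO control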;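 on 1 uM KAM: median log10 fold change of treatment over DMSO control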;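 on 10 uM KAM: median log10 fold change of treatment over DMSO control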
T9 construct: endogenous in cells; host or cells: K562
Description: as §1

CDK10 = target: T10, CDK10 (Homo sapiens, UniProt Q15131)
T10 construct: endogenous in cells; host or cells: K562
Description: as §1

ROR2 = target: T11, ROR2 (Homo sapiens, UniProt Q01974);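 on 0.001 uM KAM: median log10 fold change of treatment over DMSO control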;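 on 0.01 uM KAM: median log10 fold change of treatment over DMSO control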;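 on 0.1 uM KAM: median log10 fold change of treatment over DMSO control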;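 on 1 uM KAM: median log10 fold change of treatment over DMSO control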;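 on 10 uM KAM: median log10 fold change of treatment over DMSO control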
T11 construct: endogenous in cells; host or cells: K562
Description: as §1

[1] = read-out: RB50 (the source's name)
[2] = KAM 0.001-10 uM, read-out: RB50 (the source's name)

T7 sequence (P28482 whole entry): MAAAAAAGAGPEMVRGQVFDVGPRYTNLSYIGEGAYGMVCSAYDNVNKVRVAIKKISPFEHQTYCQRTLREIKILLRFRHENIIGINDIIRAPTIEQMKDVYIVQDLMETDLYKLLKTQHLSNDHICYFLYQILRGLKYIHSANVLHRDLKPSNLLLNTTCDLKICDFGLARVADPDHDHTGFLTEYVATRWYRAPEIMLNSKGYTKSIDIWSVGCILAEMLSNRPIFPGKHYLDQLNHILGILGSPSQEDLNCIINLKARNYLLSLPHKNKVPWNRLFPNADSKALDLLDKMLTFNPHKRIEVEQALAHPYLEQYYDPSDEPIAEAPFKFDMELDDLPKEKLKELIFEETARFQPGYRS
T1 sequence (Q9P289 whole entry): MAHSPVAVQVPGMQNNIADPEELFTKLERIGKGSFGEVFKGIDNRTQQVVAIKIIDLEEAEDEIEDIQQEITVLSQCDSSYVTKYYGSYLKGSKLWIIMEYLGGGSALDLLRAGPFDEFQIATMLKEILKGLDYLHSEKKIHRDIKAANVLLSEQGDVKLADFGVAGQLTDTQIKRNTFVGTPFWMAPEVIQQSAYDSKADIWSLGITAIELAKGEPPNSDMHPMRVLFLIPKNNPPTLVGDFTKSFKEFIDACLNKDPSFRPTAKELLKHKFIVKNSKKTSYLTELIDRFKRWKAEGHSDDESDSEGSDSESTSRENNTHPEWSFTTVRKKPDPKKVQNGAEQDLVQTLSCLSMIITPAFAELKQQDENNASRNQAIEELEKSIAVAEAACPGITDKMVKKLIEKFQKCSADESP
T2 sequence (P49760 whole entry): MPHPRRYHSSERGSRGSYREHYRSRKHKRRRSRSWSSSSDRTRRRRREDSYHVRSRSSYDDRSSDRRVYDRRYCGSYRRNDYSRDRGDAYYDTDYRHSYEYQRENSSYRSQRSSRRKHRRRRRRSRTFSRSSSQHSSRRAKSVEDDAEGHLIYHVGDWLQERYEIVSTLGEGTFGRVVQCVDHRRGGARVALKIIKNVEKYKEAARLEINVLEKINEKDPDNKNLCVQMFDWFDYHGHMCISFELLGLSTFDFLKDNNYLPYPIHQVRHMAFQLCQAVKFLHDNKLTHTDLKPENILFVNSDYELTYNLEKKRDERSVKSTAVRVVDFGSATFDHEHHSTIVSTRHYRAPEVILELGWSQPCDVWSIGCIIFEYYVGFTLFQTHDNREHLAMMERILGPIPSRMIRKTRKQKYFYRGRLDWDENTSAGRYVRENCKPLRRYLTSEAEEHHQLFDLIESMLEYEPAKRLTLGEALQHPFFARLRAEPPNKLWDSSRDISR
T6 sequence (Q86Z02 whole entry): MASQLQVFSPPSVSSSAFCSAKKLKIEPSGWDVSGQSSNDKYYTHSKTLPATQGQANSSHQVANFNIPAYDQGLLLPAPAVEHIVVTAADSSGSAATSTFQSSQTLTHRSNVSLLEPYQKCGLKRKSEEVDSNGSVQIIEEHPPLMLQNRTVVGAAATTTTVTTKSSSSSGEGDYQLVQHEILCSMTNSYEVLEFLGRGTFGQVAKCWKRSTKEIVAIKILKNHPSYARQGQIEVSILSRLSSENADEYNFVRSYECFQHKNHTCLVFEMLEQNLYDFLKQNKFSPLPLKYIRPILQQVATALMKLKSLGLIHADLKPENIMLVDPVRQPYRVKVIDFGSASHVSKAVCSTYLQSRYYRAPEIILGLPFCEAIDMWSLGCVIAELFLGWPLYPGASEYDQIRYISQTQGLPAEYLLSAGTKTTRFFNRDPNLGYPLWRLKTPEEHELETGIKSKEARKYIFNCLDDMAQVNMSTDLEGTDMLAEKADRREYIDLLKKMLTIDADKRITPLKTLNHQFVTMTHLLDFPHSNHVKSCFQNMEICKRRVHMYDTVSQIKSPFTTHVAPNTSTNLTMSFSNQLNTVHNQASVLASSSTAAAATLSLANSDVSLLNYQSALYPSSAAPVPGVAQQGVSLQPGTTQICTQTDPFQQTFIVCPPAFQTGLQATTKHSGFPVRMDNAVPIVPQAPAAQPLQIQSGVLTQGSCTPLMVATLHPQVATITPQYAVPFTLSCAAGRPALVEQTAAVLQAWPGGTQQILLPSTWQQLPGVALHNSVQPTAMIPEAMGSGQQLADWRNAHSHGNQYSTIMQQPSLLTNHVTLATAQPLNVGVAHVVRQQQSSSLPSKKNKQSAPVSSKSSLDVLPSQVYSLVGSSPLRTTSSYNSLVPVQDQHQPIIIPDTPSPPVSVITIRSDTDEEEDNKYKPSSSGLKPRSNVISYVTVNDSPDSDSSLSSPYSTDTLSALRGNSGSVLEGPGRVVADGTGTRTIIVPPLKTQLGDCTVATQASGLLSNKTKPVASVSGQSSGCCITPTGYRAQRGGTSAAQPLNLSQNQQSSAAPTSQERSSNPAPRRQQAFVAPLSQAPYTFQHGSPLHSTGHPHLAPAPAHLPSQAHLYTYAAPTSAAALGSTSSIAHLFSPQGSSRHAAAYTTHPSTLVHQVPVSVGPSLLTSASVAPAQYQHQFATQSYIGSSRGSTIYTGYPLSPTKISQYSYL
T9 sequence (Q14012 whole entry): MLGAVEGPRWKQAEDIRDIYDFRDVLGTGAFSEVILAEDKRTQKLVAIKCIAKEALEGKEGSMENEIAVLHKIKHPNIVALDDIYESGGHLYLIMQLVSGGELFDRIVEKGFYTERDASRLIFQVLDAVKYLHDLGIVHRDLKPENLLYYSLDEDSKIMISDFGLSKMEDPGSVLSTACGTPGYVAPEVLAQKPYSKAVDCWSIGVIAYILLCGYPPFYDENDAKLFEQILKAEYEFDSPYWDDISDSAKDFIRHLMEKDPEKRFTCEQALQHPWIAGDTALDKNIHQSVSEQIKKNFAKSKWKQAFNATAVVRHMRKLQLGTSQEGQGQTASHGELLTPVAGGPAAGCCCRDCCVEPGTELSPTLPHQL
T4 sequence (Q9NSY1 whole entry): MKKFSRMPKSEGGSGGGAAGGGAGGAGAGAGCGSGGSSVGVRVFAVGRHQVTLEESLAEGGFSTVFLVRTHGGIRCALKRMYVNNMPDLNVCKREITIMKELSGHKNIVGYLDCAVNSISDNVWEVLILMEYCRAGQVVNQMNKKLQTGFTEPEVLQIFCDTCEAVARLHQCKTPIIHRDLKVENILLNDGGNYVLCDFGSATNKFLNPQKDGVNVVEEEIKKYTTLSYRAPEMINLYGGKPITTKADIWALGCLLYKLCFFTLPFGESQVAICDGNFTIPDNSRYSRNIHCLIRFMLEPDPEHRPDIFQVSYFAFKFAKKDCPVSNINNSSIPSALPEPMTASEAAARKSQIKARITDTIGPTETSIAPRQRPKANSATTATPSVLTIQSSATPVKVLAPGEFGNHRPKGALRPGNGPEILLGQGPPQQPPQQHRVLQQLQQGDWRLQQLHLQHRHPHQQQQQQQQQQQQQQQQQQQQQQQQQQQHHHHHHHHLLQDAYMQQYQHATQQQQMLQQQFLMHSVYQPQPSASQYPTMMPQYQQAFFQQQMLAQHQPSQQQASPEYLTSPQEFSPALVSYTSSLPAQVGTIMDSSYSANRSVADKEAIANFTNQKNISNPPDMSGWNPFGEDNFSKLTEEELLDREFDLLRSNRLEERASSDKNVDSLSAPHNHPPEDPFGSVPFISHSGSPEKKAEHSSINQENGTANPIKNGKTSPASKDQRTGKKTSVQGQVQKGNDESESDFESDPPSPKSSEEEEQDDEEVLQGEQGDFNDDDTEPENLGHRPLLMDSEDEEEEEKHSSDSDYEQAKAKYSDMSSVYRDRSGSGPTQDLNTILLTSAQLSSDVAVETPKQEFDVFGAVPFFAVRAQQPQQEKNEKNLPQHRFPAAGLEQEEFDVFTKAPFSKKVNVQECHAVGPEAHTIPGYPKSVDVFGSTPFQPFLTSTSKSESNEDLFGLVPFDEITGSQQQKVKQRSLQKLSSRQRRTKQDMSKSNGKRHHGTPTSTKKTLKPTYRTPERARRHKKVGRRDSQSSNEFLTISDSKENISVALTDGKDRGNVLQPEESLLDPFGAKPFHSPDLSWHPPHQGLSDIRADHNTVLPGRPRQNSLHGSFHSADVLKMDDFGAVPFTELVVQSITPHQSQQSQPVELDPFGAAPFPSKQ
T5 sequence (Q8N165 whole entry): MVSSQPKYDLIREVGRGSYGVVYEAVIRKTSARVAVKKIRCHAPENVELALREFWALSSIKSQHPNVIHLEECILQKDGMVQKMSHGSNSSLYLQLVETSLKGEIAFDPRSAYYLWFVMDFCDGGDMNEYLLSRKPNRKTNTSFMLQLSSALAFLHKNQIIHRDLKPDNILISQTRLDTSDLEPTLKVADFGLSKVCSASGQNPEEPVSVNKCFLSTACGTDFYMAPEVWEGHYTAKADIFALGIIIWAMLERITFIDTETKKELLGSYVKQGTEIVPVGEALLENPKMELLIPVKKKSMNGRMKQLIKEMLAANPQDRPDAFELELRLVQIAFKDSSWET
T10 sequence (Q15131 whole entry): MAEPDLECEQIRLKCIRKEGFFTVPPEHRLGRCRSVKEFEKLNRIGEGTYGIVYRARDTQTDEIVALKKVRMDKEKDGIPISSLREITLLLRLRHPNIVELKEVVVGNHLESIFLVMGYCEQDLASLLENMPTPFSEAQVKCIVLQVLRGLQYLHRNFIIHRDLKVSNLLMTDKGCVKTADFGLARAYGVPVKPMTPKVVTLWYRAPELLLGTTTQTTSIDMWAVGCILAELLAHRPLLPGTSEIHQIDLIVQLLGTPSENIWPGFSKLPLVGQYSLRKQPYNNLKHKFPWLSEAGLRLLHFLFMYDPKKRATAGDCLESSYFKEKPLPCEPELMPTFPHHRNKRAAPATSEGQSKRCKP

## N#CCc1ccc(Nc2nc(NCCCN)cc(Nc3cc(C4CC4)[nH]n3)n2)cc1 [KAM]
STK26; 0.001 uM KAM
  median Log10 fold change: -0.05178
STK26; 0.01 uM KAM
  median Log10 fold change: -0.01072
STK26; 0.1 uM KAM
  median Log10 fold change: -0.2654
STK26; 1 uM KAM
  median Log10 fold change: -0.4176
STK26; 10 uM KAM
  median Log10 fold change: -0.5788
STK26; [1]
  pIC50: 6.60
CLK2; [2]
  pIC50: < 5.00
CLK2; relative to 0 uM KAM = 0
  0.001 uM KAM: -0.009153
  0.01 uM KAM: 0.05043
  0.1 uM KAM: -0.05281
  1 uM KAM: -0.09929
  10 uM KAM: -0.1362
ACVR1; 0.001 uM KAM
  median Log10 fold change: 0.003413
ACVR1; 0.01 uM KAM
  median Log10 fold change: -0.1656
ACVR1; 0.1 uM KAM
  median Log10 fold change: -0.6449
ACVR1; 1 uM KAM
  median Log10 fold change: -0.6498
ACVR1; 10 uM KAM
  median Log10 fold change: -0.7414
ACVR1; [1]
  pIC50: 7.57
BMP2K; 0.001 uM KAM
  median Log10 fold change: -0.005905
BMP2K; 0.01 uM KAM
  median Log10 fold change: -0.3094
BMP2K; 0.1 uM KAM
  median Log10 fold change: -0.4691
BMP2K; 1 uM KAM
  median Log10 fold change: -0.5686
BMP2K; 10 uM KAM
  median Log10 fold change: -0.6945
BMP2K; [1]
  pIC50: 7.80
PDIK1L; 0.001 uM KAM
  median Log10 fold change: -0.01583
PDIK1L; 0.01 uM KAM
  median Log10 fold change: -0.03169
PDIK1L; 0.1 uM KAM
  median Log10 fold change: -0.1434
PDIK1L; 1 uM KAM
  median Log10 fold change: -0.3076
PDIK1L; 10 uM KAM
  median Log10 fold change: -0.3596
PDIK1L; [1]
  pIC50: 5.88
HIPK1; 0.001 uM KAM
  median Log10 fold change: 0.007007
HIPK1; 0.01 uM KAM
  median Log10 fold change: -0.007344
HIPK1; 0.1 uM KAM
  median Log10 fold change: -0.151
HIPK1; 1 uM KAM
  median Log10 fold change: -0.3582
HIPK1; 10 uM KAM
  median Log10 fold change: -0.4749
HIPK1; [1]
  pIC50: 6.11
MAPK1; 0.001 uM KAM
  median Log10 fold change: -0.0422
MAPK1; 0.01 uM KAM
  median Log10 fold change: -0.03333
MAPK1; 0.1 uM KAM
  median Log10 fold change: -0.1132
MAPK1; 1 uM KAM
  median Log10 fold change: -0.2315
MAPK1; 10 uM KAM
  median Log10 fold change: -0.3482
MAPK1; [1]
  pIC50: 5.50
TBK1; 0.001 uM KAM
  median Log10 fold change: -0.0003533
TBK1; 0.01 uM KAM
  median Log10 fold change: 0.01133
TBK1; 0.1 uM KAM
  median Log10 fold change: -0.1059
TBK1; 1 uM KAM
  median Log10 fold change: -0.5242
TBK1; 10 uM KAM
  median Log10 fold change: -0.6823
TBK1; [1]
  pIC50: 6.34
CAMK1; [2]
  pIC50: 5.19
CAMK1; relative to 0 uM KAM = 0
  0.001 uM KAM: -0.0406
  0.01 uM KAM: 0.01937
  0.1 uM KAM: -0.06624
  1 uM KAM: -0.1636
  10 uM KAM: -0.3114
CDK10; 0.001 uM KAM
  median Log10 fold change: 0.01311
CDK10; 0.01 uM KAM
  median Log10 fold change: -0.05132
CDK10; 0.1 uM KAM
  median Log10 fold change: -0.3516
CDK10; 1 uM KAM
  median Log10 fold change: -0.4253
CDK10; 10 uM KAM
  median Log10 fold change: -0.3533
CDK10; [1]
  pIC50: 6.89
ROR2; [2]
  pIC50: < 5.00
ROR2; relative to 0 uM KAM = 0
  0.001 uM KAM: -0.05631
  0.01 uM KAM: -0.02329
  0.1 uM KAM: -0.008785
  1 uM KAM: -0.03493
  10 uM KAM: 0.2477
